“And” between values parts separate entries of the source, which are not always exact repeats. Equal values may be shown once.
What was measured:
C6 tumorigenic cells = test: Binding and internalization in C6 tumorigenic cells; type: cell-based, rat; conditions: 37 °C; for Bound fraction: 2 × 10^6 cells, 10 nmol radiopeptide
Method: The C6 cells were incubated at 37 °C in a humidified atmosphere containing 5% CO2 and maintained in culture using Dulbecco’s Modified Eagle Medium (DMEM)—F12 (Gibco; Gaithersburg, MD, USA) supplemented with 10% fetal bovine serum (Sigma-Aldrich; Darmstadt, Germany) and 1% glutamine (Sigma-Aldrich; Darmstadt, Germany). Cells were grown to 75% confluence and then harvested by trypsinization (0.04% trypsin/EDTA). After centrifugation (151× g for 5 min), the cells were resuspended in DMEM—F12 to a final concentration of […] for the development of the glioblastoma animal model.
An aliquot containing 2 × 10^6 C6 cells in supplemented DMEM-F12 culture medium (450 µL) was added to a vial and incubated with 10 nmol of the radiolabeled peptide at 37 °C with gentle agitation. The studies were evaluated at 1, 4 and 24 h (n = 7 for each time point). Then, the vials were centrifuged (604× g for 5 min). The radioactivities of the pellet and supernatant were separately evaluated using an automatic Wizard 3 2480 gamma counter (Perkin Elmer; Norwalk, CT, USA). The percentage of the bound fraction was calculated by Equation (1). (1) % bound fraction=Pellet radioactivity (cpm)/Pellet radioactivity (cpm)+supernatant radioactivity (cpm)×100
In the sequence, a second radioactivity determination was performed. For that, pellets were resuspended using 0.5 mL of acid buffer (0.2 M acetic acid in 0.5 M NaCl solution; pH 2.8) and maintained at room temperature for 5 min to remove the radiolabeled molecule attached to the cell membrane surface. Then, the vials were centrifuged (1677× g for 5 min). The pellet and supernatant were separated and their radioactivities were measured using the above-mentioned automatic gamma counter. The percentage of the internalized fraction of radiopeptides was estimated based on the ratio between the activity contained in the precipitate and the supernatant and calculated by Equation (2):(2) % internalized fraction=Pellet radioactivity (cpm)/Pellet radioactivity (cpm)+supernatant radioactivity (cpm)×100

[1] = Ex vivo biodistribution in glioblastoma allograft tumor-bearing (model) rats; set-up: species or system rat; conditions: for Ex vivo biodistribution, Blood / Ex vivo biodistribution, Brain / Ex vivo biodistribution, Heart / Ex vivo biodistribution, Kidneys / Ex vivo biodistribution, Liver / Ex vivo biodistribution, Lungs / Ex vivo biodistribution, Spleen / Ex vivo biodistribution, Stomach: model rats, gamma counter, mean ± SEM, n = 3
Method: Adult male Sprague Dawley rats (280–320 g) were maintained under controlled environmental conditions (12 h light-dark cycle; constant temperature 21 ± 2 °C), with free access to water and food. Tumorigenic glioblastoma cells were implanted in the right frontal cortex, following specific coordinates (referred to bregma): anteroposterior = 1.0 mm; lateral = 3.0 mm; depth = 5.0 mm. An aliquot of culture medium (10 µL) containing 1 × 10^6 C6 cells in suspension was injected slowly (1 µL/min) using a Hamilton syringe positioned on a stereotaxic surgery frame. In the control group, only the culture medium, without cells, was injected. An interval of 20 days after cell inoculation was allowed for tumor development.
The ex vivo biodistribution of each radiolabeled peptide (4 MBq; 0.2 mL) was evaluated at 15, 60, and 240 min after IV injection in control and tumor-bearing animals (n = 3 per group, per time point). The molar activities in this study were 0.68 and 16.2 MBq/nmol for the iodine and tricarbonyl-labeled peptides, respectively. Animals were deeply anesthetized and sacrificed at the corresponding biodistribution time point. Brain, spleen, heart, stomach, liver, lungs, kidneys, and blood were collected and weighed. Then, their radioactivities were determined using the above-mentioned automatic gamma counter. The radioactivity of each organ/tissue was evaluated as the percentage of injected dose per gram of organ/tissue (% ID/g), using the same injected dose activity as a standard.

serum proteins = test: Serum protein binding (TCA precipitation); type: in vitro ADME; conditions: 25 µL radiopeptide in 175 µL serum, 37 °C, 1 h; 10% TCA precipitation; gamma counter; n = 6
Method: Radiopeptides (25 μL) were added to 175 µL of serum (n = 6) and incubated at 37 °C for 1 h. After, 1 mL of 10% trichloroacetic acid (TCA) was added for the precipitation of proteins. The mixture was vortexed for 1 min and centrifuged at 1677× g for 10 min. This process was repeated three times. Both the supernatant’s and pellet’s radioactivity were measured in an automatic Wizard 3 2480 gamma counter (Perkin Elmer; Norwalk, CT, USA).

C6 cells = test: In vitro specific binding to C6 cells (block with excess non-labeled peptide); type: cell-based, rat; conditions: 4 h
Method: The specific binding of the radiopeptides to C6 cells was evaluated in 12-well adherent plates, containing 2.0 × 10^5 cells per well. For the specific binding study (unblock), supplemented DMEM-F12 medium containing 1.66 nmol of the [^131I]I-GRGDYV or 8.88 nmol of the [^99mTc]Tc(CO) 3-GRGDHV was added in the wells. On the other hand, for the non-specific binding study (block), an excess of 1000× of the respective non-radiolabeled peptide (competitor) was added to the supplemented DMEM-F12 medium containing the radiopeptide in each well. In both cases, the plates were incubated at 37 °C in a humidified atmosphere containing 5% CO2 for 4 h and then, the supernatant was removed. Each well was washed with PBS, which was joined to the respective supernatant. Finally, the cells were removed by trypsinization and the contents were placed in microtubes. Each well was washed again with PBS, which was joined to the respective trypsinized cells. Cells and supernatants were counted in the above-mentioned automatic gamma counter.

[^99mTc]Tc(CO)3-GRGDHV
Bound fraction (C6 tumorigenic cells; 1 h, n = 7): ~ 22% | Bound fraction (C6 tumorigenic cells; 4 h, mean ± SD, n = 7): 23.47% ± 1.78 | Bound fraction (C6 tumorigenic cells; 24 h, n = 7): ~ 8% | Internalized fraction (C6 tumorigenic cells; 1 h, acid buffer wash pH 2.8, n = 7): ~ 34% | Internalized fraction (C6 tumorigenic cells; 4 h, acid buffer wash pH 2.8, mean ± SD, n = 7): 54.24% ± 3.99 | Internalized fraction (C6 tumorigenic cells; 24 h, acid buffer wash pH 2.8, n = 7): ~ 74% | Ex vivo biodistribution, Blood ([1]; 15 min after IV injection): 10.28 ± 2.93 %ID/g | Ex vivo biodistribution, Blood ([1]; 60 min after IV injection): 8.91 ± 0.94 %ID/g | Ex vivo biodistribution, Blood ([1]; 240 min after IV injection): 10.32 ± 1.51 %ID/g | Ex vivo biodistribution, Brain ([1]; 15 min after IV injection): 0.71 ± 0.01 %ID/g | Ex vivo biodistribution, Brain ([1]; 60 min after IV injection): 0.81 ± 0.01 %ID/g | Ex vivo biodistribution, Brain ([1]; 240 min after IV injection): 1.57 ± 0.11 %ID/g | Ex vivo biodistribution, Heart ([1]; 15 min after IV injection): 5.40 ± 0.48 %ID/g | Ex vivo biodistribution, Heart ([1]; 60 min after IV injection): 5.14 ± 0.73 %ID/g | Ex vivo biodistribution, Heart ([1]; 240 min after IV injection): 4.80 ± 0.11 %ID/g | In vivo radiochemical stability ([1]; judged from ex vivo biodistribution (stomach uptake) in rats): better in vivo radiochemical stability | Ex vivo biodistribution, Kidneys ([1]; 15 min after IV injection): 58.33 ± 1.43 %ID/g | Ex vivo biodistribution, Kidneys ([1]; 60 min after IV injection): 58.99 ± 1.13 %ID/g | Ex vivo biodistribution, Kidneys ([1]; 240 min after IV injection): 40.44 ± 2.99 %ID/g | Ex vivo biodistribution, Liver ([1]; 15 min after IV injection): 7.04 ± 0.68 %ID/g | Ex vivo biodistribution, Liver ([1]; 60 min after IV injection): 8.29 ± 0.43 %ID/g | Ex vivo biodistribution, Liver ([1]; 240 min after IV injection): 11.62 ± 1.01 %ID/g | Ex vivo biodistribution, Lungs ([1]; 15 min after IV injection): 10.03 ± 2.56 %ID/g | Ex vivo biodistribution, Lungs ([1]; 60 min after IV injection): 7.83 ± 0.20 %ID/g | Ex vivo biodistribution, Lungs ([1]; 240 min after IV injection): 9.38 ± 1.89 %ID/g | Ex vivo biodistribution, Spleen ([1]; 15 min after IV injection): 3.74 ± 0.33 %ID/g | Ex vivo biodistribution, Spleen ([1]; 60 min after IV injection): 2.88 ± 0.32 %ID/g | Ex vivo biodistribution, Spleen ([1]; 240 min after IV injection): 4.12 ± 0.79 %ID/g | Ex vivo biodistribution, Stomach ([1]; 15 min after IV injection): 4.44 ± 1.25 %ID/g | Ex vivo biodistribution, Stomach ([1]; 60 min after IV injection): 7.28 ± 0.88 %ID/g | Ex vivo biodistribution, Stomach ([1]; 240 min after IV injection): 14.60 ± 2.07 %ID/g | Serum protein binding (SPB) (serum proteins): ~50% and 49.97 ± 0.01% | Binding to C6 cells (unblock) (C6 cells; 2.0 × 10^5 cells per well, 37 °C, 1.66 nmol [131I]I-GRGDYV or 8.88 nmol [99mTc]Tc(CO)3-GRGDHV, mean ± SD): 0.61 ± 0.07% | Binding to C6 cells with excess of non-radiolabeled peptide (block) (C6 cells; 1000× excess of the respective non-radiolabeled peptide, 37 °C, mean ± SD): 0.33 ± 0.04% | Reduction of binding by excess of non-radiolabeled peptide (C6 cells; block versus unblock, C6 cells): ~ 46%

— article PMC8876959, “Comparative Evaluation of Radiochemical and Biological Properties of ^131I- and [^99mTc]Tc(CO)3-Labeled RGD Analogues Planned to Interact with the αvβ3 Integrin Expressed in Glioblastoma” (Pharmaceuticals, 2022)
